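How tested: cells in 96-well plates exposed to compound for 48 hours at five concentrations. TGI: concentration producing complete growth inhibition.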
Assays:
Test in all cases: DTP human tumour cell line panel, 48 h
TK-10 renal = tested on: TK-10 renal
HCC-2998 colon = tested on: HCC-2998 colon
SK-OV-3 ovarian = tested on: SK-OV-3 ovarian
OVCAR-8 ovarian = tested on: OVCAR-8 ovarian
KM20L2 colon = tested on: KM20L2 colon
MOLT-4 leukemia = tested on: MOLT-4 leukemia
DMS 273 small cell lung = tested on: DMS 273 small cell lung
RPMI-8226 leukemia = tested on: RPMI-8226 leukemia
OVCAR-4 ovarian = tested on: OVCAR-4 ovarian
SW-620 colon = tested on: SW-620 colon
KM12 colon = tested on: KM12 colon
NCI-H226 lung = tested on: NCI-H226 lung
COLO 205 colon = tested on: COLO 205 colon
UO-31 renal = tested on: UO-31 renal
SNB-75 CNS = tested on: SNB-75 CNS
UACC-62 melanoma = tested on: UACC-62 melanoma
HT29 colon = tested on: HT29 colon
HOP-62 NSCLC = tested on: HOP-62 NSCLC
A498 renal = tested on: A498 renal
K-562 leukemia = tested on: K-562 leukemia
IGROV1 ovarian = tested on: IGROV1 ovarian
HCT-116 colon = tested on: HCT-116 colon
A549 NSCLC = tested on: A549 NSCLC
SK-MEL-5 melanoma = tested on: SK-MEL-5 melanoma
OVCAR-3 ovarian = tested on: OVCAR-3 ovarian
XF 498 CNS = tested on: XF 498 CNS
LOX IMVI melanoma = tested on: LOX IMVI melanoma
HOP-92 NSCLC = tested on: HOP-92 NSCLC
HL-60(TB) leukemia = tested on: HL-60(TB) leukemia
UACC-257 melanoma = tested on: UACC-257 melanoma
CCRF-CEM leukemia = tested on: CCRF-CEM leukemia
M14 melanoma = tested on: M14 melanoma
RXF 393 renal = tested on: RXF 393 renal
EKVX NSCLC = tested on: EKVX NSCLC
DLD-1 colon = tested on: DLD-1 colon
NCI-H460 lung = tested on: NCI-H460 lung
SK-MEL-2 melanoma = tested on: SK-MEL-2 melanoma
HCT-15 colon = tested on: HCT-15 colon
SN12C renal = tested on: SN12C renal
SK-MEL-28 melanoma = tested on: SK-MEL-28 melanoma
HOP-18 NSCLC = tested on: HOP-18 NSCLC
SF-539 CNS = tested on: SF-539 CNS
NCI-H23 lung = tested on: NCI-H23 lung
NCI-H522 lung = tested on: NCI-H522 lung
SF-295 CNS = tested on: SF-295 CNS
SR leukemia = tested on: SR leukemia
OVCAR-5 ovarian = tested on: OVCAR-5 ovarian
U251 CNS = tested on: U251 CNS
ACHN renal = tested on: ACHN renal
SNB-19 CNS = tested on: SNB-19 CNS
DMS 114 small cell lung = tested on: DMS 114 small cell lung
LXFL 529 NSCLC = tested on: LXFL 529 NSCLC
SF-268 CNS = tested on: SF-268 CNS
M19-MEL melanoma = tested on: M19-MEL melanoma
786-0 renal = tested on: 786-0 renal
MALME-3M melanoma = tested on: MALME-3M melanoma
CAKI-1 renal = tested on: CAKI-1 renal

`C/C=C/CC(S(=O)(=O)c1ccccc1)S(=O)(=O)c1ccccc1` was tested, and the TGI (TK-10 renal) was over 100 µM, the TGI (HCC-2998 colon) was over 100 µM and the TGI (SK-OV-3 ovarian) was over 100 µM. It also gave a TGI (OVCAR-8 ovarian) of over 100 µM, a TGI (KM20L2 colon) of over 100 µM and a TGI (MOLT-4 leukemia) of over 100 µM. It also gave a TGI (DMS 273 small cell lung) of over 100 µM, a TGI (RPMI-8226 leukemia) of over 100 µM and a TGI (OVCAR-4 ovarian) of over 100 µM. It also gave a TGI (SW-620 colon) of over 100 µM, a TGI (KM12 colon) of over 100 µM and a TGI (NCI-H226 lung) of over 100 µM. For the same compound, the TGI (COLO 205 colon) was over 100 µM, the TGI (UO-31 renal) was over 100 µM and the TGI (SNB-75 CNS) was over 100 µM. It also gave a TGI (UACC-62 melanoma) of over 100 µM, a TGI (HT29 colon) of over 100 µM and a TGI (HOP-62 NSCLC) of over 100 µM. For the same compound, the TGI (A498 renal) was over 100 µM, the TGI (K-562 leukemia) was over 100 µM and the TGI (IGROV1 ovarian) was over 100 µM. For the same compound, the TGI (HCT-116 colon) was over 100 µM, the TGI (A549 NSCLC) was over 100 µM and the TGI (SK-MEL-5 melanoma) was over 100 µM. For the same compound, the TGI (OVCAR-3 ovarian) was over 100 µM, the TGI (XF 498 CNS) was over 100 µM and the TGI (LOX IMVI melanoma) was over 100 µM. For the same compound, the TGI (HOP-92 NSCLC) was over 100 µM, the TGI (HL-60(TB) leukemia) was over 100 µM and the TGI (UACC-257 melanoma) was over 100 µM. It also gave a TGI (CCRF-CEM leukemia) of over 100 µM, a TGI (M14 melanoma) of over 100 µM and a TGI (RXF 393 renal) of over 100 µM. It also gave a TGI (EKVX NSCLC) of over 100 µM, a TGI (DLD-1 colon) of over 100 µM and a TGI (NCI-H460 lung) of over 100 µM. It also gave a TGI (SK-MEL-2 melanoma) of over 100 µM, a TGI (HCT-15 colon) of over 100 µM and a TGI (SN12C renal) of over 100 µM. For the same compound, the TGI (SK-MEL-28 melanoma) was over 100 µM, the TGI (HOP-18 NSCLC) was over 100 µM and the TGI (SF-539 CNS) was over 100 µM. For the same compound, the TGI (NCI-H23 lung) was over 100 µM, the TGI (NCI-H522 lung) was over 100 µM and the TGI (SF-295 CNS) was over 100 µM. For the same compound, the TGI (SR leukemia) was over 100 µM, the TGI (OVCAR-5 ovarian) was over 100 µM and the TGI (U251 CNS) was over 100 µM. The TGI (ACHN renal) was over 100 µM, the TGI (SNB-19 CNS) was over 100 µM and the TGI (DMS 114 small cell lung) was 81.8 µM.
In the case of `Cc1ccc(-n2c(=S)[nH]c3ccc(Br)cc3c2=O)cc1`, the TGI (LXFL 529 NSCLC) is reported as over 100 µM, the TGI (TK-10 renal) is reported as over 100 µM and the TGI (HCC-2998 colon) is reported as over 100 µM. For the same compound, the TGI (OVCAR-8 ovarian) was over 100 µM, the TGI (KM20L2 colon) was over 100 µM and the TGI (MOLT-4 leukemia) was over 100 µM. The TGI (RPMI-8226 leukemia) was over 100 µM, the TGI (SF-268 CNS) was over 100 µM and the TGI (OVCAR-4 ovarian) was over 100 µM. It also gave a TGI (SW-620 colon) of over 100 µM, a TGI (KM12 colon) of over 100 µM and a TGI (NCI-H226 lung) of over 100 µM. The TGI (COLO 205 colon) was over 100 µM, the TGI (UO-31 renal) was over 100 µM and the TGI (SNB-75 CNS) was over 100 µM. The TGI (HT29 colon) was over 100 µM, the TGI (HOP-62 NSCLC) was over 100 µM and the TGI (A498 renal) was over 100 µM. It also gave a TGI (K-562 leukemia) of over 100 µM, a TGI (IGROV1 ovarian) of over 100 µM and a TGI (HCT-116 colon) of over 100 µM. It also gave a TGI (A549 NSCLC) of over 100 µM, a TGI (OVCAR-3 ovarian) of over 100 µM and a TGI (XF 498 CNS) of over 100 µM. It also gave a TGI (M19-MEL melanoma) of over 100 µM, a TGI (LOX IMVI melanoma) of over 100 µM and a TGI (HOP-92 NSCLC) of over 100 µM. It also gave a TGI (HL-60(TB) leukemia) of over 100 µM, a TGI (UACC-257 melanoma) of over 100 µM and a TGI (RXF 393 renal) of over 100 µM. For the same compound, the TGI (EKVX NSCLC) was over 100 µM, the TGI (DLD-1 colon) was over 100 µM and the TGI (NCI-H460 lung) was over 100 µM. The TGI (SK-MEL-2 melanoma) was over 100 µM, the TGI (HCT-15 colon) was over 100 µM and the TGI (SN12C renal) was over 100 µM. It also gave a TGI (786-0 renal) of over 100 µM, a TGI (MALME-3M melanoma) of over 100 µM and a TGI (HOP-18 NSCLC) of over 100 µM. It also gave a TGI (SF-539 CNS) of over 100 µM, a TGI (NCI-H23 lung) of over 100 µM and a TGI (NCI-H522 lung) of over 100 µM. For the same compound, the TGI (SF-295 CNS) was over 100 µM, the TGI (SR leukemia) was over 100 µM and the TGI (OVCAR-5 ovarian) was over 100 µM. It also gave a TGI (U251 CNS) of over 100 µM, a TGI (ACHN renal) of over 100 µM and a TGI (SNB-19 CNS) of over 100 µM. The TGI (DMS 114 small cell lung) was over 100 µM.
`CC(C)(C)c1cc(COc2c3sc(=S)sc3c(OCc3cc(C(C)(C)C)cc(C(C)(C)C)c3)c3sc(=S)sc23)cc(C(C)(C)C)c1` was tested, and the TGI (LXFL 529 NSCLC) was over 100 µM, the TGI (TK-10 renal) was over 100 µM and the TGI (HCC-2998 colon) was over 100 µM. For the same compound, the TGI (SK-OV-3 ovarian) was over 100 µM, the TGI (OVCAR-8 ovarian) was over 100 µM and the TGI (KM20L2 colon) was over 100 µM. For the same compound, the TGI (MOLT-4 leukemia) was over 100 µM, the TGI (DMS 273 small cell lung) was over 100 µM and the TGI (RPMI-8226 leukemia) was over 100 µM. It also gave a TGI (OVCAR-4 ovarian) of over 100 µM, a TGI (SW-620 colon) of over 100 µM and a TGI (COLO 205 colon) of over 100 µM. The TGI (SNB-75 CNS) was over 100 µM, the TGI (UACC-62 melanoma) was over 100 µM and the TGI (HT29 colon) was over 100 µM. For the same compound, the TGI (HOP-62 NSCLC) was over 100 µM, the TGI (A498 renal) was over 100 µM and the TGI (K-562 leukemia) was over 100 µM. It also gave a TGI (IGROV1 ovarian) of over 100 µM, a TGI (HCT-116 colon) of over 100 µM and a TGI (A549 NSCLC) of over 100 µM. For the same compound, the TGI (SK-MEL-5 melanoma) was over 100 µM, the TGI (OVCAR-3 ovarian) was over 100 µM and the TGI (XF 498 CNS) was over 100 µM. It also gave a TGI (M19-MEL melanoma) of over 100 µM, a TGI (LOX IMVI melanoma) of over 100 µM and a TGI (HL-60(TB) leukemia) of over 100 µM. The TGI (UACC-257 melanoma) was over 100 µM, the TGI (CCRF-CEM leukemia) was over 100 µM and the TGI (M14 melanoma) was over 100 µM. It also gave a TGI (RXF 393 renal) of over 100 µM, a TGI (EKVX NSCLC) of over 100 µM and a TGI (CAKI-1 renal) of over 100 µM. The TGI (DLD-1 colon) was over 100 µM, the TGI (NCI-H460 lung) was over 100 µM and the TGI (HCT-15 colon) was over 100 µM. The TGI (SN12C renal) was over 100 µM, the TGI (SK-MEL-28 melanoma) was over 100 µM and the TGI (786-0 renal) was over 100 µM. For the same compound, the TGI (HOP-18 NSCLC) was over 100 µM, the TGI (SF-539 CNS) was over 100 µM and the TGI (NCI-H23 lung) was over 100 µM. For the same compound, the TGI (SF-295 CNS) was over 100 µM, the TGI (U251 CNS) was over 100 µM and the TGI (ACHN renal) was over 100 µM. The TGI (SNB-19 CNS) was over 100 µM.
